Test results as given in PMC5379642, “Mechanistic Investigations of the Mitochondrial Complex I Inhibitor Rotenone in the Context of Pharmacological and Safety Evaluation” (Scientific Reports, 2017).

Target: T1, complex I (NADH ubiquinone reductase) (Rattus norvegicus, UniProt A6K8N6+P03889+Q641Y2)
T1 construct: gene Ndufs2; native multi-subunit complex in mitochondria isolated from frozen rat liver; with NADH dehydrogenase [ubiquinone] flavoprotein 1, mitochondrial; NADH dehydrogenase [ubiquinone] flavoprotein 2, mitochondrial; NADH-ubiquinone oxidoreductase 75 kDa subunit, mitochondrial; NADH dehydrogenase [ubiquinone] iron-sulfur protein 3, mitochondrial; NADH dehydrogenase [ubiquinone] iron-sulfur protein 8, mitochondrial; NADH-ubiquinone oxidoreductase chain 2; NADH-ubiquinone oxidoreductase chain 3; NADH-ubiquinone oxidoreductase chain 4; NADH-ubiquinone oxidoreductase chain 4L; NADH-ubiquinone oxidoreductase chain 5; NADH-ubiquinone oxidoreductase chain 6
Experiment: NADH oxidation at […] nm, rotenone-sensitive rate, mitochondria from dosed rats
Conditions: ex vivo after 400 ppm dietary rotenone for 1, 3 or 14 days, no in vitro dose, decylubiquinone, pH 7.2, KCN and antimycin present

T1 sequence (Q641Y2 34-463): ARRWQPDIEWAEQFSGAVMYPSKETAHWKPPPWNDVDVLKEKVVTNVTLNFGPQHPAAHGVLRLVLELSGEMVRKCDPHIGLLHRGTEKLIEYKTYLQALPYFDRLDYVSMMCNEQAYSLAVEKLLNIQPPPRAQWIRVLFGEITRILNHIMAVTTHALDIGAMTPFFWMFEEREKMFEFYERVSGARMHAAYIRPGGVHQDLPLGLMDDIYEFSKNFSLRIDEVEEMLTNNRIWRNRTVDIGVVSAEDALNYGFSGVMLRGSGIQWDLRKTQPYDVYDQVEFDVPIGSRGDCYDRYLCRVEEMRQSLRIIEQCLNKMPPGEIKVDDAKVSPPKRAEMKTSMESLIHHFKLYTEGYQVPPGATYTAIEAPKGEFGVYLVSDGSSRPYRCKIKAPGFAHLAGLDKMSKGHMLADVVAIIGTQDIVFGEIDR
T1 sequence (A6K8N6 39-218): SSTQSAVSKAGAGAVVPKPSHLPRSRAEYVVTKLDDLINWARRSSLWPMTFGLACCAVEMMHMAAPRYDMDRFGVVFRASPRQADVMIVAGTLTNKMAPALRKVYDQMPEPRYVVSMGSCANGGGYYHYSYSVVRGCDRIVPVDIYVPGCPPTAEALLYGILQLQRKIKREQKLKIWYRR
T1 sequence (P03889 whole entry): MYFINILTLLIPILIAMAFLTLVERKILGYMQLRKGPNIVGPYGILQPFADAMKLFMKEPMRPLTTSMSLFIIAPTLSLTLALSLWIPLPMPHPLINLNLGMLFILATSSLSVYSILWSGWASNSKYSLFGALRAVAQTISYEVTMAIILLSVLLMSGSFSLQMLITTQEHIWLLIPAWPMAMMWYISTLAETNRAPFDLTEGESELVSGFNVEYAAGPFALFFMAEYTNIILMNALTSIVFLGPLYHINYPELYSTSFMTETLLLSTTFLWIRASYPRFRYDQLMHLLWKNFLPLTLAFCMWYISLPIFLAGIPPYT
T1 sequence (Q5XIH3 21-464 partner): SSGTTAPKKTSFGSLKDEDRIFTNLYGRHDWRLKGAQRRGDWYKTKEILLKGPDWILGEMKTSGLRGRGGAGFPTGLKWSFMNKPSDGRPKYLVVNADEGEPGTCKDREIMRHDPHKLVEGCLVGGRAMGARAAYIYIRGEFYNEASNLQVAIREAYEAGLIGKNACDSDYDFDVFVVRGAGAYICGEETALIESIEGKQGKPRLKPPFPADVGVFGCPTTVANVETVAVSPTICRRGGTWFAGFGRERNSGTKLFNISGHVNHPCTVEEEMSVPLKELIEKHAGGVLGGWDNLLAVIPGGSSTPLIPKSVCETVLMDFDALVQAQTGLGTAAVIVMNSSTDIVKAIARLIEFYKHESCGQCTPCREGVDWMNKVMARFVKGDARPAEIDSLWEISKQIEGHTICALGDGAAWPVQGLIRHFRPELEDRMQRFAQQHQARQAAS

C=C(C)[C@H]1Cc2c(ccc3c2O[C@@H]2COc4cc(OC)c(OC)cc4[C@@H]2C3=O)O1 [rotenone]
% decrease of complex I activity vs time-matched control: 70–80%
